Experimental data from patent publication US20080021055A1, “Novel cycloalkyl derivatives as inhibitors of bone resorption and vitronectin receptor antagonists” (Aventis Pharma S.A., priority 1996, published 2008).

Target: T1, vitronectin receptor αvβ3 (Homo sapiens, UniProt P05106+P06756)
T1 construct: expressed in transfected cells
Experiment: Vn/293 cell test: inhibition of the binding of 293 cells to human vitronectin
Assay type: cell-based
Details: 293 cells cotransfected with αv and β3 subunits, binding to plates coated with human vitronectin, 90 min at 37° C.
From the text: The inhibitory action of the compounds according to the invention against the vitronectin receptor […] can be determined, for example, as described below:
Test for the measurement of the inhibition of the binding of 293 cells to human vitronectin (abbreviated in the test results to Vn/293 cell test)
1. Purification of Human Vitronectin
Human vitronectin was isolated from human plasma and purified by affinity chromatography according to the method of Yatohyo et al., Cell Structure and Function, 1988, 23, 281-292.
293 cells, a human embryonic kidney cell line, which were cotransfected with DNA sequences for the αv and β3 subunits of the vitronectin receptor were selected according to the FACS method with a view to a high expression rate (>500,000 αvβ3 receptors/cell). The selected cells were cultured and sorted again by means of FACS to obtain a stable cell line (15 D) with expression rates of >1,000,000 copies of αvβ3 per cell.
A Linbro 96-well tissue culture plate with a flat bottom was coated overnight at 4° C. with human vitronectin (0.01 mg/ml, 0.05 ml/well) in phosphate-buffered saline solution (PBS) and then blocked with 0.5% strength BSA. […] The reaction was stopped with a glycine (50 mmol)/EDTA (5 mmol) buffer (pH 10.4) and the absorption of each well was measured at 405-650 nm. The data were evaluated using standard methods.

T1 sequence (P06756 31-889 limits assumed): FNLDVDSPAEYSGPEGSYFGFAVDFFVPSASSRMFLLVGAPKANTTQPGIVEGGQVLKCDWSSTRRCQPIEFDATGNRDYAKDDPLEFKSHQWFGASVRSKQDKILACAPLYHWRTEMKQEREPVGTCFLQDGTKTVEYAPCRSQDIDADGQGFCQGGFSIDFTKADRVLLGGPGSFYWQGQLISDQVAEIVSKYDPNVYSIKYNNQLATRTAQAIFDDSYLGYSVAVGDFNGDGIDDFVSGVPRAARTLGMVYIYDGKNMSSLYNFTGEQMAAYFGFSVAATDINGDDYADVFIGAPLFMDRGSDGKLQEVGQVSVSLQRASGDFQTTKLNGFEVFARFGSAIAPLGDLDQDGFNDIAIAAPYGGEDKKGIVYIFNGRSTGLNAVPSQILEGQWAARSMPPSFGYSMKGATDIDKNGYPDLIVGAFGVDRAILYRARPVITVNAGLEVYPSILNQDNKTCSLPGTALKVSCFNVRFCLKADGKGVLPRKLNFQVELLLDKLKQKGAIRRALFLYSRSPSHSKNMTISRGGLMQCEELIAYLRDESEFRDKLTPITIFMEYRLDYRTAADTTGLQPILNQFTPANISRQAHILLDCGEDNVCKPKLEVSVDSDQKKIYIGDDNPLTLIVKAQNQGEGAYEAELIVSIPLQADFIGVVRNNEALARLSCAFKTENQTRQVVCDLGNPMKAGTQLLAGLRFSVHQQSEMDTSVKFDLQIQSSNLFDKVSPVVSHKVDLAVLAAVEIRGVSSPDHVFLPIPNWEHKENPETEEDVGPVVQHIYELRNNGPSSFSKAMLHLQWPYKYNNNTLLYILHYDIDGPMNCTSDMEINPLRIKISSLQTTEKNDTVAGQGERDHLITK
T1 sequence (P06756 891-1048 limits assumed): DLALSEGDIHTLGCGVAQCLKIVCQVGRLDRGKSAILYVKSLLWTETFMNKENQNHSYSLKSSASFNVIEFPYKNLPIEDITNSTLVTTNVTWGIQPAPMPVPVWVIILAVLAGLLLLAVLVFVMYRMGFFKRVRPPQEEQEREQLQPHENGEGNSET
T1 sequence (P05106 27-788): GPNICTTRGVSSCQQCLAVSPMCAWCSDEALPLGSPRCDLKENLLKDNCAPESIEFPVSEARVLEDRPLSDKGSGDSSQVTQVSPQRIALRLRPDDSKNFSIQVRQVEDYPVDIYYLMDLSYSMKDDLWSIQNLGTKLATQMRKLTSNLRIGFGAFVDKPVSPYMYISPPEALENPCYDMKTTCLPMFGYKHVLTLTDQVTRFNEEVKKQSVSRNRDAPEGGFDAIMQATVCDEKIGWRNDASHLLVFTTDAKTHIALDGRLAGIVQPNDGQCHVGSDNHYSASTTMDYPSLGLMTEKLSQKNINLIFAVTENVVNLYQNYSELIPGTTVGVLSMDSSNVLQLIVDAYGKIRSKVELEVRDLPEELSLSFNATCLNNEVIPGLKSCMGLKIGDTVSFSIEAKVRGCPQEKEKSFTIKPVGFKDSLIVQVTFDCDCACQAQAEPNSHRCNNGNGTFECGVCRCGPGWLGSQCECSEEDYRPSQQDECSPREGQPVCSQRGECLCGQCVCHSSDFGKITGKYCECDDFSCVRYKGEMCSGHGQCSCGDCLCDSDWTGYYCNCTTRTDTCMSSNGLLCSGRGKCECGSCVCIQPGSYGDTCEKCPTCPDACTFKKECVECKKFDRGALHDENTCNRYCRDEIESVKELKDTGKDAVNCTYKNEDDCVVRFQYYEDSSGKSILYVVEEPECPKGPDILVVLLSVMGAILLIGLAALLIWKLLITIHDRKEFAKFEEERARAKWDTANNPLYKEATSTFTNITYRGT

Row | Structure (SMILES) | IC50 [µM]
1 | N=C(N)NC(=O)CCCOc1ccc(C[C@H](NC(=O)OCC23CC4CC(CC(C4)C2)C3)C(=O)O)cc1 [Example 1, (2S)-2-(1-Adamantylmethyloxycarbonylamino)-3-(4-(3-guanidinocarbonylpropyloxy)phenyl)propionic acid] | 0.032
2 | O=C(CCc1ccc(C(=O)NC[C@H](NC(=O)OCC23CC4CC(CC(C4)C2)C3)C(=O)O)cc1)NC1=NCCCN1 [Example 3, (2S)-2-(1-Adamantylmethyloxycarbonylamino)-3-(4-(2-(1,4,5,6-tetra-hydropyrimidin-2-ylcarbamoyl)ethyl)benzoylamino)propionic acid] | 0.032
